In ChEMBL document CHEMBL3414456, “Pentacyclic triterpene derivatives possessing polyhydroxyl ring A inhibit gram-positive bacteria growth by regulating metabolism and virulence genes expression” (2015):
≈ marks a conversion by molar mass, not a printed value. Calls of active or inactive are those of the source. The rule behind the calls is not given here.

What was measured:
[1] = system: Staphylococcus aureus; experiment: Antibacterial activity against […] Staphylococcus aureus ATCC 29213 by serial microplate method; assay type: functional
[2] = system: Escherichia coli; experiment: Antibacterial activity against Escherichia coli ATCC 25922 by serial microplate method; assay type: functional
[3] = system: Staphylococcus aureus; experiment: Potency index, ratio of ampicillin MIC to compound MIC for Staphylococcus aureus ATCC 25923; assay type: functional
[4] = system: Staphylococcus aureus; experiment: Upregulation of fmhB gene expression in Staphylococcus aureus ATCC 25923 at 0.5 x MIC by Q-RT-PCR analysis relative to control; assay type: functional, organism-based
[5] = system: Staphylococcus aureus; experiment: Downregulation of narG gene expression in Staphylococcus aureus ATCC 25923 at 0.5 x MIC by Q-RT-PCR analysis relative to control; assay type: functional, organism-based
[6] = system: Bacillus spizizenii; experiment: Upregulation of ykuD gene expression in Bacillus subtilis ATCC 6633 at 0.5 x MIC by Q-RT-PCR analysis relative to control; assay type: functional
[7] = system: Staphylococcus aureus; experiment: Upregulation of seaR gene expression in Staphylococcus aureus ATCC 25923 at 0.5 x MIC by Q-RT-PCR analysis relative to control; assay type: functional, organism-based
[8] = system: Staphylococcus aureus; experiment: Antibacterial activity against Staphylococcus aureus ATCC 25923 assessed as growth inhibition after 2 to 24 hrs; assay type: functional, organism-based
[9] = system: Bacillus spizizenii; experiment: Downregulation of mmgD gene expression in Bacillus subtilis ATCC 6633 at 0.5 x MIC by Q-RT-PCR analysis relative to control; assay type: functional, organism-based
[10] = system: Bacillus spizizenii; experiment: Antibacterial activity against Bacillus subtilis ATCC 6633 assessed as growth inhibition at 100 uM after 24 hrs by turbidimetric analysis; assay type: functional; details: for inhibition of growth at 100 µM: ATCC 6633, 24 h, read-out: GI
[11] = system: Bacillus spizizenii; experiment: Downregulation of lytF gene expression in Bacillus subtilis ATCC 6633 at 0.5 x MIC by Q-RT-PCR analysis relative to control; assay type: functional, organism-based
[12] = system: Bacillus spizizenii; experiment: Downregulation of yhdT gene expression in Bacillus subtilis ATCC 6633 at 0.5 x MIC by Q-RT-PCR analysis relative to control; assay type: functional, organism-based
[13] = system: Bacillus spizizenii; experiment: Downregulation of yqhB gene expression in Bacillus subtilis ATCC 6633 at 0.5 x MIC by Q-RT-PCR analysis relative to control; assay type: functional, organism-based
[14] = system: Staphylococcus aureus; experiment: Antibacterial activity against Staphylococcus aureus ATCC 25923 assessed as growth inhibition after 24 hrs by turbidimetric analysis; assay type: functional; details: ATCC 25923, 24 h
[15] = system: Bacillus spizizenii; experiment: Antibacterial activity against Bacillus subtilis ATCC 6633 assessed as growth inhibition after 24 hrs by turbidimetric analysis; assay type: functional; details: ATCC 6633, 24 h
[16] = system: Streptomyces scabiei; experiment: Antibacterial activity against Streptomyces scabiei CGMCC4.7610246 assessed as growth inhibition after 36 hrs by turbidimetric analysis; assay type: functional; details: CGMCC4.7610246, 36 h
[17] = system: Staphylococcus aureus; experiment: Upregulation of hla gene expression in Staphylococcus aureus ATCC 25923 at 0.5 x MIC by Q-RT-PCR analysis relative to control; assay type: functional, organism-based
[18] = system: Staphylococcus aureus; experiment: Antibacterial activity against Staphylococcus aureus ATCC 25923 assessed as growth inhibition at 100 uM after 24 hrs by turbidimetric analysis; assay type: functional; details: for inhibition of growth at 100 µM: ATCC 25923, 24 h, read-out: GI
[19] = system: Streptomyces scabiei; experiment: Antibacterial activity against Streptomyces scabiei CGMCC4.7610246 assessed as growth inhibition at 100 uM after 36 hrs by turbidimetric analysis; assay type: functional, organism-based
[20] = system: Bacillus spizizenii; experiment: Antibacterial activity against Bacillus subtilis ATCC 6633 assessed as growth inhibition after 2 to 24 hrs; assay type: functional, organism-based
[21] = system: Streptomyces scabiei; experiment: Downregulation of txtC gene expression in Streptomyces scabiei CGMCC4.7610246 at 0.5 x MIC by Q-RT-PCR analysis relative to control; assay type: functional, organism-based
[22] = system: Streptomyces scabiei; experiment: Antibacterial activity against Streptomyces scabiei CGMCC4.7610246 assessed as growth inhibition after 4 to 36 hrs; assay type: functional, organism-based
[23] = system: Streptomyces scabiei; experiment: Downregulation of tomA gene expression in Streptomyces scabiei CGMCC4.7610246 at 0.5 x MIC by Q-RT-PCR analysis relative to control; assay type: functional, organism-based
[24] = system: Streptomyces scabiei; experiment: Downregulation of p450 gene expression in Streptomyces scabiei CGMCC4.7610246 at 0.5 x MIC by Q-RT-PCR analysis relative to control; assay type: functional, organism-based
[25] = system: Streptomyces scabiei; experiment: Downregulation of murX gene expression in Streptomyces scabiei CGMCC4.7610246 at 0.5 x MIC by Q-RT-PCR analysis relative to control; assay type: functional, organism-based
[26] = system: Streptomyces scabiei; experiment: Downregulation of necl gene expression in Streptomyces scabiei CGMCC4.7610246 at 0.5 x MIC by Q-RT-PCR analysis relative to control; assay type: functional, organism-based
[27] = system: Streptomyces scabiei; experiment: Downregulation of txtA gene expression in Streptomyces scabiei CGMCC4.7610246 at 0.5 x MIC by Q-RT-PCR analysis relative to control; assay type: functional, organism-based
[28] = system: Streptomyces scabiei; experiment: Antibacterial activity against Streptomyces scabiei CGMCC4.7610246 assessed as killing time at 0.5 x MIC to 4 x MIC; assay type: functional
[29] = system: Staphylococcus aureus; experiment: Antibacterial activity against Staphylococcus aureus after 24 hrs; assay type: functional
[30] = system: Staphylococcus aureus; experiment: Downregulation of lytM gene expression in Staphylococcus aureus ATCC 25923 at 0.5 x MIC by Q-RT-PCR analysis relative to control; assay type: functional, organism-based
[31] = system: Staphylococcus aureus; experiment: Antibacterial activity against Staphylococcus aureus; assay type: functional
[32] = system: Bacillus subtilis; experiment: Antibacterial activity against Bacillus subtilis; assay type: functional
[33] = system: Microsporum canis; experiment: Antifungal activity against Microsporum canis by serial microplate method; assay type: functional
[34] = system: Meyerozyma guilliermondii; experiment: Antifungal activity against Candida guilliermondii by serial microplate method; assay type: functional

For `CC1(C)[C@@H](O)C[C@H](O)[C@]2(C)[C@H]3CC=C4[C@@H]5C[C@](C)(C(=O)O)CC[C@]5(C(=O)O)CC[C@@]4(C)[C@]3(C)CC[C@@H]12`, the MIC [1] was 125 µg/mL (≈ 249 µM) and the MIC [2] was 16 µg/mL (≈ 31.8 µM).

`CC(C)OC(=O)[C@]12CC[C@@H](C)[C@H](C)[C@H]1C1=CC[C@@H]3[C@@]4(C)[C@@H](O)[C@H](O)[C@H](O)C(C)(C)[C@@H]4CC[C@@]3(C)[C@]1(C)CC2` was tested, and the Ratio [3] was 4, the Activity [4] was “Active” and the Activity [5] was “Active”. The “fold change (FC)” value [6] was 2.5, the Activity [7] was “Active” and the “growth inhibition (GI)” value [8] was “Dose-dependent effect”. The Activity [9] was “Active”, the inhibition of growth at 100 µM [10] was greater than 95% and the Activity [11] was “Active”. For the same compound, the Activity [12] was “Active”, the Activity [13] was “inactive” and the MIC [14] was 1 µM (≈ 0.531 µg/mL). The MIC [15] was 4 µM (≈ 2.12 µg/mL), the MIC [16] was no less than 100 µM and the Activity [17] was “Active”. For the same compound, the inhibition of growth at 100 µM [18] was greater than 95%.

In the case of `C[C@H]1[C@H](C)CC[C@]2(C(=O)O)CC[C@]3(C)C(=CC[C@@H]4[C@@]5(C)CC[C@H](O)C(C)(C)[C@@H]5CC[C@]43C)[C@H]12`, the “growth inhibition (GI)” value [19] is reported as “Active”, the Activity [4] is reported as “Active” and the Activity [6] is reported as “Active”. The Activity [7] was “Active”, the Activity [9] was “Active” and the “growth inhibition (GI)” value [10] was “Active”. For the same compound, the Activity [11] was “Active”, the Activity [12] was “Active” and the Activity [13] was “Active”. For the same compound, the Activity [17] was “Active” and the “growth inhibition (GI)” value [18] was “Active”.

For `CC1(C)CC[C@]2(C(=O)O)CC[C@]3(C)C(=CC[C@@H]4[C@@]5(C)[C@H]6O[C@H]6[C@H](O)C(C)(C)[C@@H]5CC[C@]43C)[C@@H]2C1`, the “growth inhibition (GI)” value [19] was “Active”, the “growth inhibition (GI)” value [10] was “Active” and the “growth inhibition (GI)” value [20] was “Dose-dependent effect”. For the same compound, the “growth inhibition (GI)” value [18] was “Active”.

In the case of `COC(=O)[C@]12CCC(C)(C)C[C@H]1C1=CC[C@@H]3[C@@]4(C)[C@@H](O)[C@H](O)[C@H](O)C(C)(C)[C@@H]4CC[C@@]3(C)[C@]1(C)CC2`, the Activity [21] is reported as “Active”, the “growth inhibition (GI)” value [22] is reported as “Dose-dependent effect” and the Activity [23] is reported as “Active”. For the same compound, the Activity [24] was “Active”, the Activity [25] was “Active” and the Activity [26] was “Active”. For the same compound, the Activity [27] was “Active”, the inhibition of growth at 100 µM [10] was greater than 95% and the MIC [14] was no less than 100 µM. For the same compound, the MIC [15] was 64 µM (≈ 32.2 µg/mL), the MIC [16] was 4 µM (≈ 2.01 µg/mL) and the inhibition of growth at 100 µM [18] was greater than 95%. It also gave a Time [28] greater than 24 h.

With `CC1(C)CC[C@]2(C(=O)O)CC[C@]3(C)C(=CC[C@@H]4[C@@]5(C)CC[C@H](O)C(C)(C)[C@@H]5CC[C@]43C)[C@@H]2C1` the Activity [21] was “Active”, the “growth inhibition (GI)” value [19] was “Active” and the Activity [23] was “Active”. The Activity [4] was “Active”, the Activity [24] was “inactive” and the Activity [7] was “Active”. For the same compound, the Activity [25] was “Active”, the Activity [26] was “Active” and the Activity [27] was “Active”. The “growth inhibition (GI)” value [10] was “Active”, the Activity [17] was “Active” and the “growth inhibition (GI)” value [18] was “Active”.

For `C[C@@H](O)[C@H]1C(=O)N2C(C(=O)O)=C(SCCNC=N)C[C@H]12` [IMIPENEM ANHYDROUS], the “inhibition zone (IZ)” value [29] was 33 mm.

In the case of `C[C@@]1(C(=O)O)CC[C@]2(C(=O)O)CC[C@]3(C)C(=CC[C@@H]4[C@@]5(C)[C@@H](O)C[C@H](O)[C@](C)(CO)[C@@H]5CC[C@]43C)[C@@H]2C1`, the MIC [1] is reported as 63 µg/mL (≈ 121 µM) and the MIC [2] is reported as 16 µg/mL (≈ 30.8 µM).

In the case of `C[C@H]1[C@H](C)C=C[C@]2(C(=O)O)CC[C@]3(C)C(=CC[C@H]4[C@]5(C)[C@H]([C@H](O)C[C@]43C)C(C)(C)[C@@H](O)[C@H](O)[C@@H]5O)[C@H]12`, the “inhibition zone (IZ)” value [29] is reported as 24 mm.

`CCOC(=O)[C@]12CCC(C)(C)C[C@H]1C1=CC[C@@H]3[C@@]4(C)[C@@H](O)[C@H](O)[C@H](O)C(C)(C)[C@@H]4CC[C@@]3(C)[C@]1(C)CC2` was tested, and the Activity [30] was “Active”, the Ratio [3] was 2 and the Activity [4] was “Active”. For the same compound, the Activity [7] was “Active”, the “growth inhibition (GI)” value [8] was “Dose-dependent effect” and the inhibition of growth at 100 µM [10] was greater than 95%. For the same compound, the MIC [14] was 1 µM (≈ 0.517 µg/mL), the MIC [15] was 64 µM (≈ 33.1 µg/mL) and the MIC [16] was no less than 100 µM. For the same compound, the Activity [17] was “Active” and the inhibition of growth at 100 µM [18] was greater than 95%.

In the case of `CC1OC(OC[C@]2(C)[C@@H](O)[C@@H](O)[C@@H](O)[C@]3(C)[C@H]4CC=C5[C@@H]6[C@@H](C)[C@H](C)CC[C@]6(C)CC[C@@]5(C)[C@]4(C)CC[C@@H]23)C(O)C(O)C1O` (some centres undefined), the MIC [31] is reported as 31.3 µg/mL (≈ 50.4 µM) and the MIC [32] is reported as 15.6 µg/mL (≈ 25.1 µM).

`CCOC(=O)[C@]12CC[C@@H](C)[C@H](C)[C@H]1C1=CC[C@@H]3[C@@]4(C)[C@@H](O)[C@H](O)[C@H](O)C(C)(C)[C@@H]4CC[C@@]3(C)[C@]1(C)CC2` was tested, and the Activity [30] was “Active”, the Ratio [3] was 2 and the Activity [4] was “Active”. The Activity [5] was “Active”, the Activity [7] was “Active” and the inhibition of growth at 100 µM [10] was greater than 95%. It also gave an MIC [14] of 2 µM (≈ 1.03 µg/mL), an MIC [15] of 64 µM (≈ 33.1 µg/mL) and an MIC [16] of no less than 100 µM. The Activity [17] was “Active” and the inhibition of growth at 100 µM [18] was greater than 95%.

Compound `C[C@H]1[C@H](C)CC[C@]2(C(=O)O)CC[C@]3(C)C(=CC[C@@H]4[C@@]5(C)C[C@@H](O)[C@H](O)C(C)(C)[C@@H]5CC[C@]43C)[C@H]12` [COROSOLIC ACID] has an MIC [1] of 7 µg/mL (≈ 14.8 µM), an MIC [33] of 8 µg/mL (≈ 16.9 µM) and an MIC [34] of 11.7 µg/mL (≈ 24.8 µM).
